Test results reported in patent US20050215772A1, “Furanone derivatives and methods of making same” (priority 2002, published 2005).

Experiments:
Staphylococcus aureus = test: Growth of Staphylococcus aureus; assay type: cell-based
Method: The growth of Staphylococcus aureus against furanones was tested in sidearm flasks. One percent of an overnight culture was added to the growth media, Nutrient Broth, containing furanones at the concentrations 1-50 μg/ml. The bacteria were incubated at 37 C and growth was measured at 610 nm.

[1] = tested on: AHL mediated quorum sensing; assay type: cell-based
AI-2 pathway = test: microbe, parasite or virus in culture; assay type: cell-based, V. harveyi; settings: Vibrio harveyi, read-out: AI-2 (% of control)
V. vulnificus = test: Attachment by V. vulnificus; assay type: cell-based
[2] = assay type: cell-based, V. vulnificus

SMILES	AHL [1]	S. aureus (% of control) (Staphylococcus aureus; growth, 50 ug/ml)	other results
O=C1C=C(Br)/C(=C/Nc2ccccc2)O1 [drawing 26]	+ + +		activity at 50 µg/mL (Staphylococcus aureus; Staphylococcus aureus, growth, 50 ug/ml, read-out: S. aureus (% of control)): 104%; activity at 50 µg/mL (AI-2 pathway): 2%
CCCCCCCC1=CC(=O)N(c2ccccc2)C1(O)CBr (centres unmarked)	+ + +		
CCCCC1=CC(=C(Br)Br)N(CCOC(=O)C(F)(F)F)C1=O	+ + +	No effect (50 μg/ml)	
CC1(O)NC(=O)C=C1c1ccccc1 (centres unmarked)			activity at 25 µg/mL (Staphylococcus aureus; Staphylococcus aureus, growth, 25 μg/ml, read-out: S. aureus (% of control)): 102%; activity at 100 µg/mL (AI-2 pathway): 39%
CCCCC1=C(Br)/C(=C/Nc2ccccc2)OC1=O	+ + + +	No effect 50 μg/ml	activity at 20 µg/mL (AI-2 pathway): 61%
CC1=CC(C)(Nc2ccccc2)OC1=O (centres unmarked)	+ +	No effect 50 μg/ml	activity at 100 µg/mL (AI-2 pathway): 50%
C/C=C1\NC(=O)C=C1C	+ + +	No effect 50 μg/ml	
O=C1C=C(Br)/C(=C/Nc2ccccc2)O1 [drawing 35]			reduction in attachment (V. vulnificus): 30% reduction in attachment by V. vulnificus; reduction in swimming motility [2]: 40-50% reduction in swimming motility in V. cholerae and V. vulnificus
CCCC(Br)C1=CC(=C(Br)Br)N(c2ccccc2)C1=O (centres unmarked) [drawing 37]			reduction in attachment (V. vulnificus): 30% reduction in attachment by V. vulnificus; reduction in swimming motility [2]: 40-50% reduction in swimming motility in V. cholerae and V. vulnificus
C[C@@]1(Nc2ccccc2)OC(=O)C=C1N	+ + +		activity at 5 µg/mL (AI-2 pathway): 80%; activity at 10 µg/mL (AI-2 pathway): 57%; activity at 50 µg/mL (AI-2 pathway): 26%
CCCCC1=CC(=C(Br)Br)N(CCOS(=O)(=O)c2ccc(C)cc2)C1=O	+ +	No effect (50 μg/ml)	
CCCC(Br)C1=CC(=C(Br)Br)N(c2ccccc2)C1=O (centres unmarked) [drawing 24]	+ + + +		S. aureus (% of control) (Staphylococcus aureus; growth for 10 hrs, concentration not given): 0% growth at ug/ml for 10 hrs % of control
CCCCC1=CC(=C(Br)Br)N(c2ccccc2)C1=O	+ + +		
